Like-named read-outs stand apart in the source and are kept apart here.
Assays:
MAGL [1] = biological target: MAGL (Mus musculus (Mouse), UniProt O35678); assay: In vitro competitive activity-based protein profiling, mouse brain proteome; type: biochemical; conditions: for inhibition at 1 µM: mouse; for IC50: mouse brain
MAGL [2] = biological target: MAGL (Homo sapiens (Human), UniProt Q99685); assay: In vitro competitive activity-based protein profiling (gel-based, FP-Rh or HT-01 probe); type: biochemical
Chain of MAGL (Homo sapiens (Human), UniProt Q99685) (Q99685 whole entry): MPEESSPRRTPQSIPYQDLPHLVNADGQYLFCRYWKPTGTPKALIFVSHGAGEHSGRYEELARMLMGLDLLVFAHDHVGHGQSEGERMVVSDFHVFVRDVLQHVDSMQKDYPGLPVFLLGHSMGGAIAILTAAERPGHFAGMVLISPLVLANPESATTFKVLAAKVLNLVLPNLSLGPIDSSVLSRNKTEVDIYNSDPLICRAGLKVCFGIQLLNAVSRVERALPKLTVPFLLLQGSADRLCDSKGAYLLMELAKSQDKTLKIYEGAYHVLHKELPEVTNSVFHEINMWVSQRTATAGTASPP
Experimental: In Vitro Competitive Activity-Based Protein Profiling.
Proteomes (human prefrontal cortex or cell membrane fractions) (50 μL, 1.0 mg/mL total protein concentration) were preincubated with varying concentrations of inhibitors at 37° C. After 30 min, FP-Rh or HT-01 (1.0 μL, 50 μM in DMSO) was added and the mixture was incubated for another 30 min at room temperature. Reactions were quenched with SDS loading buffer (15 μL—4×) and run on SDS-PAGE.

[3] = human PC3, read-out: MAGL % Inhibition at 1 μM (human PC3)
[4] = human PC3, read-out: MAGL Human PC3 (IC50)
[5] = human PFC (prefrontal cortex), read-out: MAGL % Inhibition at 1 μM (human PFC)

Chain of MAGL (Mus musculus (Mouse), UniProt O35678) (O35678 whole entry): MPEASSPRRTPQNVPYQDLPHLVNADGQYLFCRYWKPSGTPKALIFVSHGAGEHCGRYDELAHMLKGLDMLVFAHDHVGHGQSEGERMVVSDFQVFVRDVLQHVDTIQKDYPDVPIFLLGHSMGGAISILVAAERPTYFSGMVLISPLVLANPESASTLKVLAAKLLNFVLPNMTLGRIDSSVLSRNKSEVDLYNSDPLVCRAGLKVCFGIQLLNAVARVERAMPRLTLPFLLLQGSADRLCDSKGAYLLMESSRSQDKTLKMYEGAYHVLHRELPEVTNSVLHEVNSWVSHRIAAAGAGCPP

Structure (SMILES) | inhibition at 1 µM (MAGL [1]) [%] | inhibition at 1 µM (MAGL [2]; [3]) [%] | IC50 (MAGL [2]; [4]) [nM] | inhibition at 1 µM (MAGL [2]; [5]) [%] | IC50 (MAGL [1]) [nM] | IC50 (MAGL [2]; human PFC (prefrontal cortex), read-out: MAGL Human PFC (IC50)) [nM]
O=C(OC(C(F)(F)F)C(F)(F)F)N1CCC2(CCCN2C(=O)c2cn3c(n2)CN(C2CCOCC2)CC3)CC1 [Example 162, 1,1,1,3,3,3-Hexafluoropropan-2-yl 1-(7-(tetrahydro-2H-pyran-4-yl)-5,6,7,8-tetrahydroimidazo [1,2-a]pyrazine-2-carbonyl)-1,8-diazaspiro[4.5] decane-8-carboxylate] | > 75 | > 75 | < 100 | – | – | –
COCCN(C(=O)C1(c2ncccn2)CC1)C1(C)CCN(C(=O)OC(C(F)(F)F)C(F)(F)F)CC1 [Example 212, 1,1,1,3,3,3-hexafluoropropan-2-yl 4-(N-(2-methoxyethyl)-1-(pyrimidin-2-yl)cyclopropane-1-carboxamido)-4-methylpiperidine-1-carboxylate] | > 75 | > 75 | – | > 75 | – | –
CC1(NC(=O)c2cn3c(n2)CN(c2cnccn2)CC3)CCN(C(=O)OC(C(F)(F)F)C(F)(F)F)CC1 [Example 29, 1,1,1,3,3,3-Hexafluoropropan-2-yl 4-methyl-4-(7-(pyrazin-2-yl)-5,6,7,8-tetrahydroimidazo[1,2-a]pyrazine-2-carboxamido)piperidine-1-carboxylate] | > 75 | > 75 | – | – | – | –
O=C(OC(C(F)(F)F)C(F)(F)F)N1CCC2(CCCN2Cc2cc3cc(Cl)c(Cl)cc3[nH]2)CC1 [Example 112, 1,1,1,3,3.3-Hexafluoropropan-2-yl 1-((5,6-dichloro-1H-indol-2-yl)methyl)-1,8-diazaspiro[4.5] decane-8-carboxylate] | > 75 | – | – | > 75 | – | –
Cc1cc(Cl)c2nc(CN3CCCC34CCN(C(=O)OC(C(F)(F)F)C(F)(F)F)CC4)cn2c1 [Example 115, 1,1,1,3,3,3-Hexafluoropropan-2-yl 1-((8-chloro-6-methylimidazo [1,2-a]pyridin-2-yl)methyl)-1,8-diazaspiro[4.5] decane-8-carboxylate] | > 75 | – | < 100 | > 75 | – | –
O=C(OC(C(F)(F)F)C(F)(F)F)N1CCC2(CCCN2C(=O)C(F)(F)c2ncc(F)cn2)CC1 [Example 196, 1,1,1,3,3,3-Hexafluoropropan-2-yl 1-(2,2-difluoro-2-(5-fluoropyrimidin-2-yl)acetyl)-1,8-diazaspiro [4.5]decane-8-carboxylate] | > 75 | > 75 | – | > 75 | – | –
Cc1c(C(=O)N2CCCC23CCN(C(=O)OC(C(F)(F)F)C(F)(F)F)CC3)c(Cl)nn1C [Example 125, 1,1,1,3,3,3-Hexafluoropropan-2-yl 1-(3-chloro-1,5-dimethyl-1H-pyrazole-4-carbonyl)-1,8-diazaspiro[4.5] decane-8-carboxylate] | > 75 | – | < 100 | > 75 | – | –
O=C(OC(C(F)(F)F)C(F)(F)F)N1CCC2(CCCN2C(=O)c2ccc3nccn3c2)CC1 [Example 85, 1,1,1,3,3,3-Hexafluoropropan-2-yl 1-(imidazo[1,2-a]pyridine-6-carbonyl)-1,8-diazaspiro[4.5] decane-8-carboxylate] | > 75 | – | < 100 | – | 100 to 1000 | –
O=C(OC(C(F)(F)F)C(F)(F)F)N1CCC2(CCCN2C(=O)c2cn3cc(C(F)(F)F)cc(Cl)c3n2)CC1 [Example 116, 1,1,1,3,3,3-Hexafluoropropan-2-yl 1-(8-chloro-6-(trifluoromethyl)imidazo[1,2-a]pyridine-2-carbonyl)-1,8-diazaspiro[4.5] decane-8-carboxylate] | > 75 | – | – | > 75 | – | –
CC1(NC(=O)c2nnc3n2CCN(C2CCC2)C3)CCN(C(=O)OC(C(F)(F)F)C(F)(F)F)CC1 [Example 205, 1,1,1,3,3,3-Hexafluoropropan-2-yl 4-(7-cyclobutyl-5,6,7,8-tetrahydro-[1,2,4]triazolo[4,3-a]pyrazine-3-carboxamido)-4-methylpiperidine-1-carboxylate] | > 75 | > 75 | < 100 | > 75 | – | –
O=C(OC(C(F)(F)F)C(F)(F)F)N1CCC2(CCCN2C(=O)c2ccc3ocnc3c2)CC1 [Example 87, 1,1,1,3,3.3-Hexafluoropropan-2-yl 1-(benzo[d]oxazole-5-carbonyl)-1,8-diazaspiro[4.5] decane-8-carboxylate] | > 75 | – | < 100 | – | < 100 | –
CN(C(=O)c1nnc2n1CCNC2)C1(C)CCN(C(=O)OC(C(F)(F)F)C(F)(F)F)CC1 [Example 210, 1,1,1,3,3,3-Hexafluoropropan-2-yl 4-methyl-4-(N-methyl-5,6,7,8-tetrahydro-[1,2,4]triazolo [4,3-a]pyrazine-3-carboxamido) piperidine-1-carboxylate] | 25 to 75 | 25 to 75 | – | > 75 | – | –
Cc1cc(C)n2nc(C)c(C(=O)N3CCCC34CCN(C(=O)OC(C(F)(F)F)C(F)(F)F)CC4)c2n1 [Example 172, 1,1,1,3,3,3-Hexafluoropropan-2-yl 1-(2,5,7-trimethylpyrazolo [1,5-a]pyrimidine-3-carbonyl)-1,8-diazaspiro[4.5] decane-8-carboxylate] | > 75 | > 75 | < 100 | > 75 | – | –
Cc1nc2ccccn2c1C(=O)N1CCCC12CCN(C(=O)OC(C(F)(F)F)C(F)(F)F)CC2 [Example 134, 1,1,1,3,3,3-Hexafluoropropan-2-yl 1-(2-methyl-imidazo[1,2-a]pyridine-3-carbonyl)-1,8-diazaspiro[4.5] decane-8-carboxylate] | > 75 | – | < 100 | > 75 | – | –
CC(C)N1CCn2cc(C(=O)N(C)C3(C)CCN(C(=O)OC(C(F)(F)F)C(F)(F)F)CC3)nc2C1 [Example 22, 1,1,1,3,3,3-Hexafluoropropan-2-yl 4-(7-isopropyl-N-methyl-5,6,7,8-tetrahydroimidazo[1,2-a]pyrazine-2-carboxamido)-4-methylpiperidine-1-carboxylate] | > 75 | > 75 | < 100 | > 75 | – | –
O=C(OC(C(F)(F)F)C(F)(F)F)N1CCC2(CCCN2C(=O)c2cnn3ccccc23)CC1 [Example 146, 1,1,1,3,3,3-Hexafluoropropan-2-yl 1-(pyrazolo[1,5-a]pyridine-3-carbonyl)-1,8-diazaspiro[4.5] decane-8-carboxylate] | > 75 | > 75 | – | > 75 | – | –
O=C(OC(C(F)(F)F)C(F)(F)F)N1CCC2(CCCN2C(=O)c2ccn(-c3ccc(Cl)cc3)n2)CC1 [Example 92, 1,1,1,3,3,3-Hexafluoropropan-2-yl 1-(1-(4-chlorophenyl)-1H-pyrazole-3-carbonyl)-1,8-diazaspiro[4.5] decane-8-carboxylate] | > 75 | – | < 100 | – | < 100 | –
CN1CCN(c2ncncc2C(=O)N2CCCC23CCN(C(=O)OC(C(F)(F)F)C(F)(F)F)CC3)CC1 [Example 136, 1,1,1,3,3,3-Hexafluoropropan-2-yl 1-(4-(4-methylpiperazin-1-yl)pyrimidine-5-carbonyl)-1,8-diazaspiro [4.5]decane-8-carboxylate] | < 25 | – | – | 25 to 75 | – | –
CC(=O)N1CCn2cc(C(=O)N(C)C3(C)CCN(C(=O)OC(C(F)(F)F)C(F)(F)F)CC3)nc2C1 [Example 26, 1,1,1,3,3,3-Hexafluoropropan-2-yl 4-(7-acetyl-N-methyl-5,6,7,8-tetrahydroimidazo[1,2-a]pyrazine-2-carboxamido)-4-methylpiperidine-1-carboxylate] | 25 to 75 | > 75 | – | > 75 | – | –
O=C(OC(C(F)(F)F)C(F)(F)F)N1CCC2(CCCN2Cc2cnc(N3CCN(C4CC4)CC3)s2)CC1 [Example 132, 1,1,1,3,3,3-Hexafluoropropan-2-yl 1-((2-(4-cyclopropylpiperazin-1-yl)thiazol-5-yl)methyl)-1,8-diazaspiro[4.5] decane-8-carboxylate] | > 75 | – | < 100 | > 75 | – | –
O=C(OC(C(F)(F)F)C(F)(F)F)N1CCC2(CCCN2C(=O)C2(c3ccnc(C4CC4)n3)CC2)CC1 [Example 201, 1,1,1,3,3,3-Hexafluoropropan-2-yl 1-(1-(2-cyclopropylpyrimidin-4-yl)cyclopropane-1-carbonyl)-1,8-diazaspiro [4.5]decane-8-carboxylate] | > 75 | > 75 | < 100 | > 75 | – | –
O=C(OC(C(F)(F)F)C(F)(F)F)N1CCC2(CCCN2C(=O)c2ccn(Cc3ccccc3)n2)CC1 [Example 91, 1,1,1,3,3,3-Hexafluoropropan-2-yl 1-(1-benzyl-1H-pyrazole-3-carbonyl)-1,8-diazaspiro[4.5] decane-8-carboxylate] | > 75 | – | < 100 | – | < 100 | –
O=C(OC(C(F)(F)F)C(F)(F)F)N1CCC2(CCCN2Cc2cc3cc(Cl)cc(Cl)c3[nH]2)CC1 [Example 110, 1,1,1,3,3,3-Hexafluoropropan-2-yl 1-((5,7-dichloro-1H-indol-2-yl)methyl)-1,8-diazaspiro[4.5] decane-8-carboxylate] | > 75 | – | – | – | < 100 | < 100

From patent publication US11142526B2, “Spirocycle compounds and methods of making and using same” (H. Lundbeck A/S, priority 2017, dated 2021)
